Laboratory results from publication PMC9190012, “Heparin activation of protein Z-dependent protease inhibitor (ZPI) allosterically blocks protein Z activation through an extended heparin-binding site” (The Journal of Biological Chemistry, 2022).
Positions count from the first letter of the chain named.

Assays:
Assay in all cases: Direct heparin binding titrations monitored by intrinsic protein fluorescence quenching
[1] = target: T1, helix H site mutant ZPI (K260A/R263A/R305A/K308A/R310A) (Homo sapiens, UniProt Q9UK55, K281A/K329A/R284A/R326A/R331A); conditions: 200 nM helix H site mutant ZPI
T1 construct: made in house; host or cells: Escherichia coli
T1 sequence (Q9UK55 22-444 K281A/R284A/R326A/K329A/R331A): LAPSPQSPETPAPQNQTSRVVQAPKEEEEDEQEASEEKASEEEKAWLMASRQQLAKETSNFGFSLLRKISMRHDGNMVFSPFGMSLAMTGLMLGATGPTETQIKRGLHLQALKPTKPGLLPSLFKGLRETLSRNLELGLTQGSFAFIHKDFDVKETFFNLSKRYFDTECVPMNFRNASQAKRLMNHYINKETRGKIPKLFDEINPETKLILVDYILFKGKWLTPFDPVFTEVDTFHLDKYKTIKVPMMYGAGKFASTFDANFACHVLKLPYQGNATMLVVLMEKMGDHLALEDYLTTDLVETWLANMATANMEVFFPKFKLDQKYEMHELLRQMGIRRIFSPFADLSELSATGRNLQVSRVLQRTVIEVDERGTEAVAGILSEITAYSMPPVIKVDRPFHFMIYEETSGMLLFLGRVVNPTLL
Protocol: (§1) Fluorescence emission spectra of NBD-ZPI (50–100 nM) were measured in the absence or the presence of PZ and heparin in 20 mM Tris buffer (pH 7.4), 0.2 M NaCl, 0.1% PEG 8000, 1 mg/ml bovine serum albumin (BSA), and 2.5 mM CaCl2 with an SLM 8000 spectrofluorometer with excitation at 480 nm over the emission range of 500 to 600 nm. Intrinsic protein fluorescence of WT and mutant ZPIs (200 nM to 1 μM) was measured in the same buffer without BSA, with excitation at 280 nm over the emission range of 300 to 400 nm. Emission was monitored in 5-nm steps with 5 to 10 s of integrations per step. Spectra were obtained in triplicate and averaged. Buffer, buffer plus PZ, or buffer plus heparin background spectra were subtracted, and dilution corrections were made for added PZ or heparin (<10%). Direct equilibrium binding of heparin to ZPI was measured by titrations of unlabeled WT and variant ZPIs (0.2–1 μM) with heparin monitored by the quenching of intrinsic protein fluorescence accompanying heparin binding at excitation and emission wavelengths of 280 and 340 nm, respectively. Titrations were computer fit by the aforementioned quadratic binding equation with [H]o replacing [PZ]o and KD,H replacing KD,PZapp.

WT ZPI = target: T2, WT ZPI (Homo sapiens, UniProt Q9UK55)
T2 construct: made in house; host or cells: Escherichia coli
T2 sequence (Q9UK55 22-444): T1 sequence (Q9UK55 22-444 K281A/R284A/R326A/K329A/R331A) with A260K, A263R, A305R, A308K, A310R
Protocol: as §1

[2] = target: T3, helix C site mutant ZPI (K104A/R105A/K113A/K116A) (Homo sapiens, UniProt Q9UK55, K125A/K134A/K137A/R126A); conditions: 1 μM helix C site mutant ZPI; quenching end point fixed at WT
T3 construct: made in house; host or cells: Escherichia coli
T3 sequence (Q9UK55 22-444 K125A/R126A/K134A/K137A): T1 sequence (Q9UK55 22-444 K281A/R284A/R326A/K329A/R331A) with K104A, R105A, K113A, K116A, A260K, A263R, A305R, A308K, A310R
Protocol: as §1

SMILES: CO[C@H]1O[C@H](COS(=O)(=O)O)[C@@H](O[C@@H]2O[C@@H](C(=O)O)[C@@H](O[C@H]3O[C@H](COS(=O)(=O)O)[C@@H](O[C@@H]4O[C@H](C(=O)O)[C@@H](O[C@H]5O[C@H](COS(=O)(=O)O)[C@@H](O)[C@H](O)[C@H]5NS(=O)(=O)O)[C@H](O)[C@H]4O)[C@H](OS(=O)(=O)O)[C@H]3NS(=O)(=O)O)[C@H](O)[C@H]2OS(=O)(=O)O)[C@H](O)[C@H]1NS(=O)(=O)O [H5, fondaparinux]
- Kd [1]: 142 ± 42 µM
- Kd (WT ZPI; 200 nM WT ZPI, 0.2 M NaCl buffer, pH 7.4, 25 °C): 123 ± 23 µM
- maximal quenching of protein fluorescence (WT ZPI; fit of titration by quadratic binding equation): −15 ± 1%
- quenching of the protein fluorescence emission spectrum (WT ZPI; near saturating levels of heparin (400 μM H5 or 4 μM H72)): 15 to 20%
- Kd [2]: 1900 ± 200 µM
